Measured values reported in ChEMBL document CHEMBL1201862, “PubChem BioAssay data set” (2004).
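48-hour exposure; five concentrations; linearly interpolated endpoints. Abbreviation: GI50, concentration required for 50% inhibition of growth.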 The source made the active and inactive calls. Rule as the data show it: active = GI50 up to about 1.1 µM and inactive = higher.

Experiments:
Assay in all cases: DTP human tumour cell line panel, 48 h
BT-549 = tested on: BT-549
Hs-578T = tested on: Hs-578T
DMS-114 = tested on: DMS-114
DMS-273 = tested on: DMS-273
HOP-18 = tested on: HOP-18
LXFL 529 = tested on: LXFL 529
M19-MEL = tested on: M19-MEL
XF498 = tested on: XF498
RXF 631 = tested on: RXF 631

| Compound | GI50 (BT-549) | GI50 (Hs-578T) | further results |
| --- | --- | --- | --- |
| CC(=O)CCNc1ccc(-c2cc(-c3ccc(N(C)C)cc3)nc3ccc4ccccc4c23)cc1 | 35.9 µM (inactive) | 39.2 µM (inactive) |  |
| Oc1c(CN2CCN(c3ccccc3)CC2)cc(Br)c2cccnc12 | 7.52 µM (inactive) | 3.33 µM (inactive) |  |
| CCC(=O)OCc1ccc2oc(=O)c(C(=O)Oc3cncc(Cl)c3)cc2c1 | > 100 µM (inactive) | > 100 µM (inactive) |  |
| Clc1ccccc1C(Nc1cnccn1)Nc1cnccn1 | > 100 µM (inactive) | > 100 µM (inactive) |  |
| NNC(=O)CS(=O)(=O)Nc1ncccn1 | > 100 µM (inactive) | > 100 µM (inactive) |  |
| S=C(NCc1ccccc1)N/N=C/c1ccccn1 | 8.02 µM (inactive) | 14.8 µM (inactive) |  |
| O=C1NC(=O)C(c2c[nH]c3cc(Br)ccc23)=C1c1cnc[nH]1 | 13.5 µM (inactive) | 52.7 µM (inactive) |  |
| CN(C)CCc1c2c(nc3ccccc13)C(=O)c1cccnc1C2=O | 0.268 µM (active) | 1.15 µM (inactive) |  |
| Cc1sc2nc(-c3ccc(Cl)c([N+](=O)[O-])c3)c(/C=N/NC(=N)N)n2c1C | 1.7 µM (inactive) | 1.79 µM (inactive) |  |
| Cc1ccc2c(c1C)C(=O)/C(=C/c1cccc(C)c1C(=O)O)C2 |  | > 86.1 µM (inactive) |  |
| Cc1nc(Nc2ccccc2)sc1C(=O)CC(=O)C(=O)Nc1c(C(C)C)cccc1C(C)C |  |  | GI50 (DMS-114): 81.7 µM (inactive); GI50 (DMS-273): > 100 µM (inactive); GI50 (HOP-18): > 100 µM (inactive); GI50 (LXFL 529): 60 µM (inactive); GI50 (M19-MEL): > 100 µM (inactive); GI50 (XF498): > 100 µM (inactive) |
| COC1=CC(=O)OC(/C=C(C)/C=C/C2=C(C)CCCC2(C)C)C1 (stereo unspecified) |  |  | GI50 (DMS-114): > 100 µM (inactive); GI50 (DMS-273): > 100 µM (inactive); GI50 (LXFL 529): > 100 µM (inactive); GI50 (M19-MEL): > 100 µM (inactive) |
| CC(=O)NNc1nc(C)c(C(=O)/C=C/c2ccc(N(C)C)cc2)s1 |  |  | GI50 (DMS-114): > 100 µM (inactive); GI50 (DMS-273): > 100 µM (inactive); GI50 (HOP-18): > 100 µM (inactive); GI50 (RXF 631): > 100 µM (inactive) |
| COC(O)C(=O)c1c2c(cc3c1CC1(Cc4cc5c(cc4C1)CCC5)C3)CCC2 (stereo unspecified) |  | 20.4 µM (inactive) |  |
| CCCCCC(C)C[C@H]1CO[C@H](c2ccc[nH]2)N[C@H]1C(=O)OC (stereo partly specified) | > 100 µM (inactive) | > 100 µM (inactive) |  |
| COC(=O)/C=C1/N=C(N(C)/N=C/c2ccccc2)NC1=O | > 100 µM (inactive) | > 100 µM (inactive) |  |
| Nc1nc(NC2C=C(CO)C(O)C2O)c([N+](=O)[O-])c(=O)[nH]1 (stereo unspecified) |  |  | GI50 (DMS-114): > 100 µM (inactive); GI50 (DMS-273): > 100 µM (inactive); GI50 (HOP-18): > 100 µM (inactive); GI50 (LXFL 529): > 100 µM (inactive); GI50 (M19-MEL): > 100 µM (inactive); GI50 (XF498): > 100 µM (inactive) |

| Compound | GI50 (BT-549) | GI50 (Hs-578T) | further results |
| --- | --- | --- | --- |
| COc1ccc(C(=O)/C=C/c2ccc(OCCSCCCCCCCCCCSCCOc3ccc(/C=C/C(=O)c4ccc(OC)cc4)cc3)cc2)cc1 |  | > 100 µM (inactive) |  |
| COC(=O)/C=C1\C(=O)Nc2ccc(Br)cc21 | 1.69 µM (inactive) | 4.04 µM (inactive) |  |
| O=c1c2ccccc2[nH]c2ccc3c(Cl)n[nH]c3c12 |  |  | GI50 (DMS-114): 57.7 µM (inactive); GI50 (DMS-273): 40.3 µM (inactive); GI50 (HOP-18): 33.2 µM (inactive); GI50 (LXFL 529): 51.6 µM (inactive); GI50 (M19-MEL): 42.6 µM (inactive); GI50 (RXF 631): 37.3 µM (inactive) |
| Cc1oc2c(cc(O)c3ccccc32)c2cccc1-2 |  | > 100 µM (inactive) |  |
| CCN(CC)c1c(C(=O)/C=C/c2ccc(Cl)cc2)c(-c2ccccc2)nn(C)c1=O |  |  | GI50 (DMS-114): 1.97 µM (inactive); GI50 (DMS-273): 1.71 µM (inactive); GI50 (HOP-18): 2.09 µM (inactive); GI50 (LXFL 529): 1.85 µM (inactive); GI50 (M19-MEL): 1.69 µM (inactive); GI50 (RXF 631): 2.14 µM (inactive) |
| CN1C(=O)N(C)C2(CCN(CC(CC3OCCO3)c3ccc(F)cc3)CC2)C1=O (stereo unspecified) | > 100 µM (inactive) | > 100 µM (inactive) |  |
| COc1ccc(C(=O)C(CC2C(=O)CC(C)(C)C(C(=O)C(=O)Nc3c(C)cccc3C)C2=O)c2ccc(OC)cc2)cc1 (stereo unspecified) | > 100 µM (inactive) | > 100 µM (inactive) |  |
| COC12CCCN1c1ccn(Cc3ccccc3)c(=O)c1C2=O (stereo unspecified) | > 100 µM (inactive) | > 100 µM (inactive) |  |
| COC1C(=O)N(SC)C1c1ccccc1Cl (stereo unspecified) | 23.4 µM (inactive) | > 100 µM (inactive) |  |
| CC(C)=CCC[C@@H](C)C1=C(O)C(=O)C(C)=C(Nc2ccccc2I)C1=O | 23.6 µM (inactive) | 9.12 µM (inactive) |  |
| CC(C)[C@@H]1CC[C@@H](C)C[C@H]1OC(=O)/C=C1\C(C(=O)O[C@@H]2C[C@H](C)CC[C@H]2C(C)C)[C@H]2C=C[C@@H]1O2 (stereo partly specified) |  | 72.3 µM (inactive) |  |
| O=C1CC(=O)NC(NN2C(=O)/C(=C/c3ccc(Cl)c(Cl)c3)N=C2c2ccccc2)=N1 | 20.7 µM (inactive) | 18.4 µM (inactive) |  |
| CN(N=O)c1nc2c(C(N)=O)ncn2s1 | > 100 µM (inactive) | > 100 µM (inactive) |  |
| Cc1ccc(N/N=C2\C3=C(CCC(C)(C)O3)C(=O)c3ccccc32)cc1 | 26.1 µM (inactive) | 11.6 µM (inactive) |  |
| O=C(Cc1cc(=O)oc2cc(O)ccc12)N/N=C/c1ccc(N(CCCl)CCCl)cc1 | 16.4 µM (inactive) | 26.1 µM (inactive) |  |
| C/C(=C\COP(=O)(O)OP(=O)(O)O)CCCOCc1ccccc1 |  | > 100 µM (inactive) |  |
| COC(=O)[C@H](C)N1C(=O)N[C@@H](C(C)C)C1=O | > 100 µM (inactive) |  |  |
